Values after ≈ are worked out from the molar mass of the structure shown.
How the values were obtained:
Staphylococcus aureus [1] = assay: Antibacterial activity against Staphylococcus aureus ATCC 25923 after 16 to 20 hrs by broth microdilution method; type: functional; conditions: for MIC: read-out: MIC100
Escherichia coli [2] = assay: Antibacterial activity against Escherichia coli ATCC 25922 after 16 to 20 hrs by broth microdilution method; type: functional
Salmonella typhimurium = assay: Antibacterial activity against clinical isolates of Salmonella typhimurium after 16 to 20 hrs by broth microdilution method; type: functional; conditions: for MIC: Salmonella enterica, read-out: MIC100
Pseudomonas aeruginosa [3] = assay: Antibacterial activity against Pseudomonas aeruginosa ATCC 13048 after 16 to 20 hrs by broth microdilution method; type: functional
Enterococcus faecalis [4] = assay: Antibacterial activity against Enterococcus faecalis ATCC 29212 after 16 to 20 hrs by broth microdilution method; type: functional; conditions: for MIC: read-out: MIC100
Staphylococcus aureus [5] = assay: Growth inhibition of Staphylococcus aureus ATCC 25923 assessed as fractional inhibitory concentration index at 100 ug/ml after 6 days in presence of 0.1 ug/ml of gentamicin by microplate alamar blue assay; type: functional
[6] = system: Mycobacterium tuberculosis; assay: Growth inhibition of Mycobacterium tuberculosis H37Ra at 200 ug/ml after 6 days by microplate alamar blue assay; type: functional; conditions: 144 h, read-out: GI
Enterococcus faecalis [7] = assay: Growth inhibition of Enterococcus faecalis ATCC 29212 at 100 ug/ml after 6 days in presence of 4.5 ug/ml of gentamicin by microplate alamar blue assay; type: functional
Enterococcus faecalis [8] = assay: Growth inhibition of Enterococcus faecalis ATCC 29212 assessed as fractional inhibitory concentration index at 100 ug/ml after 6 days in presence of 4.5 ug/ml of gentamicin by microplate alamar blue assay; type: functional
[9] = Cytotoxicity against African green monkey Vero cells assessed as decrease in cell viability after 3 days by XTT assay; type: toxicity, cell-based; conditions: chlorocebus sabaeus
Staphylococcus aureus [10] = assay: Growth inhibition of Staphylococcus aureus ATCC 25923 at 100 ug/ml after 6 days in presence of 0.1 ug/ml of gentamicin by microplate alamar blue assay; type: functional
Mycobacterium avium [11] = assay: Growth inhibition of Mycobacterium avium ATCC 25291 at 200 ug/ml after 6 days by microplate alamar blue assay; type: functional, Mycobacterium avium subsp. avium ATCC 25291; conditions: ATCC 25291, 144 h, read-out: GI
[12] = system: Mycobacterium tuberculosis; assay: Growth inhibition of Mycobacterium tuberculosis H37Ra at 0.002 ug/ml after 6 days by microplate alamar blue assay; type: functional; conditions: 144 h, read-out: GI
Mycobacterium avium [13] = assay: Growth inhibition of Mycobacterium avium ATCC 25291 at 2 ug/ml after 6 days by microplate alamar blue assay; type: functional, Mycobacterium avium subsp. avium ATCC 25291; conditions: ATCC 25291, 144 h, read-out: GI
[14] = system: Mycobacterium tuberculosis; assay: Growth inhibition of Mycobacterium tuberculosis H37Ra at 0.5 ug/ml after 6 days by microplate alamar blue assay; type: functional; conditions: 144 h, read-out: GI
[15] = system: Mycobacterium tuberculosis; assay: Growth inhibition of Mycobacterium tuberculosis H37Ra at 0.006 ug/ml after 6 days by microplate alamar blue assay; type: functional; conditions: 144 h, read-out: GI
[16] = system: Mycobacterium tuberculosis; assay: Growth inhibition of Mycobacterium tuberculosis H37Ra at 0.2 ug/ml after 6 days by microplate alamar blue assay; type: functional; conditions: 144 h, read-out: GI
[17] = system: Mycobacterium tuberculosis; assay: Inhibition of Mycobacterium tuberculosis H37Ra infected in human THP1 cells assessed as reduction in surviving bacteria at 1 ug/ml after 7 days by serial dilution method; type: functional; conditions: THP-1, 168 h
[18] = system: Mycobacterium tuberculosis; assay: Growth inhibition of Mycobacterium tuberculosis H37Ra at 1 ug/ml after 6 days by microplate alamar blue assay; type: functional; conditions: 144 h, read-out: GI
[19] = system: Mycobacterium tuberculosis; assay: Growth inhibition of Mycobacterium tuberculosis H37Ra at 0.012 ug/ml after 6 days by microplate alamar blue assay; type: functional; conditions: 144 h, read-out: GI
Escherichia coli [20] = assay: Growth inhibition of Escherichia coli ATCC 25922 at 10 to 200 ug/ml after 16 to 20 hrs by broth microdilution method; type: functional
[21] = system: Mycobacterium tuberculosis; assay: Growth inhibition of Mycobacterium tuberculosis H37Ra at 50 ug/ml after 6 days by microplate alamar blue assay; type: functional; conditions: 144 h, read-out: GI
[22] = system: Mycobacterium tuberculosis; assay: Growth inhibition of Mycobacterium tuberculosis H37Ra assessed as fractional inhibitory concentration index at 50 ug/ml after 6 days in presence of 0.012 ug/ml of isoniazid and 0.002 ug/ml of rifampicin by microplate alamar blue assay; type: functional
[23] = system: Mycobacterium tuberculosis; assay: Growth inhibition of Mycobacterium tuberculosis H37Ra at 75 ug/ml after 6 days in presence of 0.2 ug/ml of isoniazid by microplate alamar blue assay; type: functional
[24] = system: Mycobacterium tuberculosis; assay: Growth inhibition of Mycobacterium tuberculosis H37Ra at 50 ug/ml after 6 days in presence of 0.006 ug/ml of isoniazid and 0.002 ug/ml of rifampicin by microplate alamar blue assay; type: functional
[25] = system: Mycobacterium tuberculosis; assay: Growth inhibition of Mycobacterium tuberculosis H37Ra assessed as fractional inhibitory concentration index at 50 ug/ml after 6 days in presence of 0.006 ug/ml of isoniazid and 0.002 ug/ml of rifampicin by microplate alamar blue assay; type: functional
[26] = system: Mycobacterium tuberculosis; assay: Growth inhibition of Mycobacterium tuberculosis H37Ra at 100 ug/ml after 6 days in presence of 0.2 ug/ml of isoniazid by microplate alamar blue assay; type: functional
Pseudomonas aeruginosa [27] = assay: Growth inhibition of Pseudomonas aeruginosa ATCC 13048 at 10 to 200 ug/ml after 16 to 20 hrs by broth microdilution method; type: functional
[28] = system: Mycobacterium tuberculosis; assay: Growth inhibition of Mycobacterium tuberculosis H37Ra at 100 ug/ml after 6 days by microplate alamar blue assay; type: functional; conditions: 144 h, read-out: GI
[29] = system: Mycobacterium tuberculosis; assay: Growth inhibition of Mycobacterium tuberculosis H37Ra at 50 ug/ml after 6 days in presence of 0.012 ug/ml of isoniazid and 0.002 ug/ml of rifampicin by microplate alamar blue assay; type: functional
[30] = system: Mycobacterium tuberculosis; assay: Growth inhibition of Mycobacterium tuberculosis H37Ra assessed as fractional inhibitory concentration index at 100 ug/ml after 6 days in presence of 0.2 ug/ml of isoniazid by microplate alamar blue assay; type: functional
[31] = system: Mycobacterium tuberculosis; assay: Growth inhibition of Mycobacterium tuberculosis H37Ra at 75 ug/ml after 6 days by microplate alamar blue assay; type: functional; conditions: 144 h, read-out: GI
[32] = system: Mycobacterium tuberculosis; assay: Inhibition of Mycobacterium tuberculosis H37Ra infected in human THP1 cells assessed as reduction in surviving bacteria at 200 ug/ml after 7 days by serial dilution method; type: functional; conditions: THP-1, 168 h
[33] = system: Mycobacterium tuberculosis; assay: Growth inhibition of Mycobacterium tuberculosis H37Ra assessed as fractional inhibitory concentration index at 75 ug/ml after 6 days in presence of 0.2 ug/ml of isoniazid by microplate alamar blue assay; type: functional

GENTAMICIN showed an MIC100 (Staphylococcus aureus [1]) of 0.5 µg/mL, an MIC100 (Escherichia coli [2]) of 1 µg/mL and an MIC100 (Salmonella typhimurium; Salmonella enterica subsp. enterica serovar Typhimurium) of 1 µg/mL. For the same compound, the MIC100 (Pseudomonas aeruginosa [3]) was 1 µg/mL and the MIC100 (Enterococcus faecalis [4]) was 12.5 µg/mL.
For `C#CCOc1cn([C@@H]2O[C@H](CO)[C@@H](O)[C@H]2F)c(=O)n(CC#C)c1=O`, the “fractional inhibitory concentration index (FICI)” value (Staphylococcus aureus [5]) was 0.7, the inhibition of growth at 200 µg/mL [6] was 35% and the MIC (Staphylococcus aureus [1]) was 200 µg/mL (≈ 591 µM). The MIC (Escherichia coli [2]; read-out: MIC100) was greater than 200 µg/mL, the MIC (Salmonella typhimurium) was greater than 200 µg/mL and the “growth inhibition (GI)” value (Enterococcus faecalis [7]) was 100%. For the same compound, the “fractional inhibitory concentration index (FICI)” value (Enterococcus faecalis [8]) was 0.86, the CC50 at 72 h [9] was greater than 300 µg/mL and the “growth inhibition (GI)” value (Staphylococcus aureus [10]) was 100%. It also gave an MIC (Pseudomonas aeruginosa [3]; read-out: MIC100) greater than 200 µg/mL, an MIC (Enterococcus faecalis [4]) of 200 µg/mL (≈ 591 µM) and an inhibition of growth at 200 µg/mL (Mycobacterium avium [11]) of 0%.
With `CO[C@H]1/C=C/O[C@@]2(C)Oc3c(C)c(O)c4c(O)c(c(/C=N/N5CCN(C)CC5)c(O)c4c3C2=O)NC(=O)/C(C)=C\C=C\[C@H](C)[C@H](O)[C@@H](C)[C@@H](O)[C@@H](C)[C@H](OC(C)=O)[C@@H]1C` [RIFAMPIN] the inhibition of growth at 0.002 µg/mL [12] was 46.2%, the inhibition of growth at 2 µg/mL (Mycobacterium avium [13]) was 90% and the inhibition of growth at 0.5 µg/mL [14] was 100%.
With `CN[C@H](CC(C)C)C(=O)N[C@H]1C(=O)N[C@@H](CC(N)=O)C(=O)N[C@H]2C(=O)N[C@H]3C(=O)N[C@H](C(=O)N[C@H](C(=O)O)c4cc(O)cc(O)c4-c4cc3ccc4O)[C@H](O)c3ccc(c(Cl)c3)Oc3cc2cc(c3O[C@@H]2O[C@H](CO)[C@@H](O)[C@H](O)[C@H]2O[C@H]2C[C@](C)(N)[C@H](O)[C@H](C)O2)Oc2ccc(cc2Cl)[C@H]1O` [VANCOMYCIN] the MIC (Staphylococcus aureus [1]) was 1.5 µg/mL (≈ 1.04 µM) and the MIC (Enterococcus faecalis [4]) was 4.5 µg/mL (≈ 3.11 µM).
In the case of `NNC(=O)c1ccncc1` [ISONIAZID], the inhibition of growth at 0.006 µg/mL [15] is reported as 1.47%, the inhibition of growth at 0.2 µg/mL [16] is reported as 48.8% and the inhibition at 1 µg/mL [17] is reported as greater than 90%. It also gave an inhibition of growth at 1 µg/mL [18] of 100% and an inhibition of growth at 0.012 µg/mL [19] of 7.22%.
In the case of `C#CCOc1cn([C@@H]2O[C@H](CO)[C@@H](O)[C@H]2F)c(=O)[nH]c1=O`, the “growth inhibition (GI)” value (Escherichia coli [20]) is reported as 0%, the inhibition of growth at 50 µg/mL [21] is reported as 2.51% and the “fractional inhibitory concentration index (FICI)” value [22] is reported as 0.09. For the same compound, the “growth inhibition (GI)” value [23] was 81.16%, the “growth inhibition (GI)” value [24] was 93.36% and the inhibition of growth at 200 µg/mL [6] was 97%. For the same compound, the “fractional inhibitory concentration index (FICI)” value [25] was 0.21, the MIC (Staphylococcus aureus [1]) was greater than 200 µg/mL and the “growth inhibition (GI)” value [26] was 99.15%. For the same compound, the “growth inhibition (GI)” value (Pseudomonas aeruginosa [27]) was 0%, the MIC (Salmonella typhimurium) was greater than 200 µg/mL and the inhibition of growth at 100 µg/mL [28] was 3.15%. For the same compound, the “growth inhibition (GI)” value [29] was 97.81%, the CC50 at 72 h [9] was greater than 300 µg/mL and the “fractional inhibitory concentration index (FICI)” value [30] was 0.03. The inhibition of growth at 75 µg/mL [31] was 1.15%, the MIC (Enterococcus faecalis [4]) was greater than 200 µg/mL and the inhibition at 200 µg/mL [32] was 50%. For the same compound, the “fractional inhibitory concentration index (FICI)” value [33] was 0.56 and the inhibition of growth at 200 µg/mL (Mycobacterium avium [11]) was 0%.
Compound `CC[C@H]1OC(=O)[C@H](C)[C@@H](O[C@H]2C[C@@](C)(OC)[C@@H](O)[C@H](C)O2)[C@H](C)[C@@H](O[C@@H]2O[C@H](C)C[C@H](N(C)C)[C@H]2O)[C@](C)(OC)C[C@@H](C)C(=O)[C@H](C)[C@@H](O)[C@]1(C)O` [CLARITHROMYCIN] has an inhibition of growth at 2 µg/mL (Mycobacterium avium [13]) of 100%.
